Where “and” joins values, the source holds several entries; their conditions need not be identical. Equal values may be shown once. Inconclusive results and toxic doses are left out. Rule as the data show it: active = T/C of 150% or more; inactive = T/C below 125%.
Tested on: L1210 leukemia ip in BDF1 mice, survival T/C
Experiment: NCI In Vivo Anticancer Drug Screen. Data for tumor model L1210 Leukemia (intraperitoneal) in B6D2F1 (BDF1) mice
Conditions: endpoint: mean survival time, higher = longer survival
Method in brief: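 Survival endpoint. Drug-treated group vs vehicle group, expressed as T divided by C. Tumor passaged by transplantation.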

[1] = dose: 100.0 mg/kg/injection, schedule: Q04DX002 (ip), vehicle: Klucel (hydroxypropylcellulose) (HPC)
[2] = dose: 200.0 mg/kg/injection, schedule: Q04DX002 (ip), vehicle: Klucel (hydroxypropylcellulose) (HPC)
[3] = dose: 400.0 mg/kg/injection, schedule: Q04DX002 (ip), vehicle: Klucel (hydroxypropylcellulose) (HPC)
[4] = dose: 200.0 mg/kg/injection, schedule: Q01DX001 (ip), vehicle: carboxymethylcellulose (CMC)
[5] = dose: 100.0 mg/kg/injection, schedule: Q01DX001 (ip), vehicle: saline with Tween-80
[6] = dose: 200.0 mg/kg/injection, schedule: Q01DX001 (ip), vehicle: saline with Tween-80
[7] = dose: 400.0 mg/kg/injection, schedule: Q01DX001 (ip), vehicle: saline with Tween-80
[8] = dose: 100.0 mg/kg/injection, schedule: Q01DX009 (ip), vehicle: saline with Tween-80
[9] = dose: 200.0 mg/kg/injection, schedule: Q01DX009 (ip), vehicle: saline with Tween-80
[10] = dose: 25.0 mg/kg/injection, schedule: Q04DX003 (ip), vehicle: saline with Tween-80
[11] = dose: 12.5 mg/kg/injection, schedule: Q01DX009 (ip), vehicle: saline with Tween-80
[12] = dose: 25.0 mg/kg/injection, schedule: Q01DX009 (ip), vehicle: saline with Tween-80
[13] = dose: 50.0 mg/kg/injection, schedule: Q01DX009 (ip), vehicle: saline with Tween-80
[14] = dose: 50.0 mg/kg/injection, schedule: Q04DX003 (ip), vehicle: saline with Tween-80
[15] = dose: 100.0 mg/kg/injection, schedule: Q04DX003 (ip), vehicle: saline with Tween-80
[16] = dose: 200.0 mg/kg/injection, schedule: Q04DX003 (ip), vehicle: saline with Tween-80
[17] = dose: 100.0 mg/kg/injection, schedule: Q01DX001 (ip), vehicle: saline
[18] = dose: 100.0 mg/kg/injection, schedule: Q04DX003 (ip), vehicle: saline
[19] = dose: 200.0 mg/kg/injection, schedule: Q01DX001 (ip), vehicle: saline
[20] = dose: 200.0 mg/kg/injection, schedule: Q04DX003 (ip), vehicle: saline
[21] = dose: 400.0 mg/kg/injection, schedule: Q01DX001 (ip), vehicle: saline
[22] = dose: 400.0 mg/kg/injection, schedule: Q04DX003 (ip), vehicle: saline with Tween-80

Measured: T/C

CCOC(=O)CNc1cccc(Br)c1
inactive: [1] 107 % of control | [2] 100 % of control | [3] 103 % of control

COc1cccc(/C=N/NC(=O)c2ccncc2)c1OC
inactive: dose: 25.0 mg/kg/injection, schedule: Q01DX009 (ip), vehicle: Klucel (hydroxypropylcellulose) (HPC) 97 % of control | dose: 50.0 mg/kg/injection, schedule: Q01DX009 (ip), vehicle: Klucel (hydroxypropylcellulose) (HPC) 101 % of control | dose: 100.0 mg/kg/injection, schedule: Q01DX009 (ip), vehicle: Klucel (hydroxypropylcellulose) (HPC) 92 % of control and 105 % of control

CCCCCCCCCCCCCCCCCC(=O)OCC1OC(OC2(COC(=O)CCCCCCCCCCCCCCCCC)OC(COC(=O)CCCCCCCCCCCCCCCCC)C(OC(=O)CCCCCCCCCCCCCCCCC)C2OC(=O)CCCCCCCCCCCCCCCCC)C(OC(=O)CCCCCCCCCCCCCCCCC)C(OC(=O)CCCCCCCCCCCCCCCCC)C1OC(=O)CCCCCCCCCCCCCCCCC (stereo not drawn)
inactive: dose: 100.0 mg/kg/injection, schedule: Q01DX001 (ip), vehicle: other 93 % of control | dose: 200.0 mg/kg/injection, schedule: Q01DX001 (ip), vehicle: other 90 % of control | dose: 400.0 mg/kg/injection, schedule: Q01DX001 (ip), vehicle: other 97 % of control

O=[N+]([O-])c1ccc2c(c1)/C(=N\O)c1cc(F)ccc1-2
inactive: dose: 100.0 mg/kg/injection, schedule: Q01DX001 (ip), vehicle: carboxymethylcellulose (CMC) 103 % of control | [4] 105 % of control | dose: 400.0 mg/kg/injection, schedule: Q01DX001 (ip), vehicle: carboxymethylcellulose (CMC) 98 % of control

O=C(c1cccs1)c1cscc1C(=O)c1cccs1
inactive: [5] 95 % of control | [6] 95 % of control | [7] 92 % of control

CCCCP(=O)(CCCC)Oc1ccccc1F
inactive: [8] 90 % of control | [9] 86 % of control

Nc1ncnc(N)c1NC(=O)c1ccc(OCc2ccccc2)c(Br)c1
inactive: [5] 93 % of control | [6] 97 % of control | [7] 96 % of control

CN(C)Cc1c[nH]c2ncccc12
inactive: dose: 6.25 mg/kg/injection, schedule: Q04DX003 (ip), vehicle: saline with Tween-80 98 % of control | dose: 12.5 mg/kg/injection, schedule: Q04DX003 (ip), vehicle: saline with Tween-80 96 % of control | [10] 102 % of control

Nc1ccn(Cc2ccccc2)c(=O)n1
inactive: dose: 75.0 mg/kg/injection, schedule: Q01DX001 (ip), vehicle: saline with Tween-80 95 % of control | dose: 150.0 mg/kg/injection, schedule: Q01DX001 (ip), vehicle: saline with Tween-80 94 % of control | dose: 300.0 mg/kg/injection, schedule: Q01DX001 (ip), vehicle: saline with Tween-80 95 % of control

CCCCCOC(=O)COc1ccc(Cl)cc1
inactive: [1] 98 % of control | [2] 98 % of control | [3] 103 % of control

O=C1CSc2ccccc2N1
inactive: [11] 94 % of control | [12] 100 % of control | [13] 102 % of control | [14] 103 % of control | [1] 97 % of control | [15] 103 % of control | [2] 95 % of control | [16] 92 % of control | [3] 110 % of control

COc1ccccc1OC(=O)Nc1ccc(S(=O)(=O)N(C)C)cc1
inactive: [17] 97 % of control | [18] 97 % of control | [19] 100 % of control | [20] 95 % of control | [21] 91 % of control | dose: 400.0 mg/kg/injection, schedule: Q04DX003 (ip), vehicle: saline 97 % of control

c1ccc(-c2ccccc2NC2=NCCO2)cc1
inactive: [11] 100 % of control | [12] 94 % of control | [13] 94 % of control

O=c1[nH]c(=O)ss1
inactive: [18] 100 % of control | [20] 94 % of control

S=C(N=Nc1ccccc1)NNc1ccccc1
inactive: dose: 18.8 mg/kg/injection, schedule: Q04DX003 (ip), vehicle: saline with Tween-80 90 % of control | dose: 18.9 mg/kg/injection, schedule: Q01DX009 (ip), vehicle: saline with Tween-80 87 % of control | dose: 30.0 mg/kg/injection, schedule: Q01DX Z (ip), vehicle: carboxymethylcellulose (CMC) 92 % of control | dose: 37.5 mg/kg/injection, schedule: Q01DX009 (ip), vehicle: saline with Tween-80 92 % of control | dose: 37.5 mg/kg/injection, schedule: Q01DX Z (ip), vehicle: carboxymethylcellulose (CMC) 97 % of control | dose: 37.5 mg/kg/injection, schedule: Q04DX003 (ip), vehicle: saline with Tween-80 87 % of control | dose: 45.0 mg/kg/injection, schedule: Q01DX Z (ip), vehicle: carboxymethylcellulose (CMC) 97 % of control | dose: 75.0 mg/kg/injection, schedule: Q01DX009 (ip), vehicle: saline with Tween-80 90 % of control | dose: 75.0 mg/kg/injection, schedule: Q01DX Z (ip), vehicle: carboxymethylcellulose (CMC) 92 % of control | dose: 75.0 mg/kg/injection, schedule: Q04DX003 (ip), vehicle: saline with Tween-80 92 % of control | dose: 150.0 mg/kg/injection, schedule: Q04DX003 (ip), vehicle: saline with Tween-80 88 % of control | [4] 101 % of control

CN(C)c1ccc(N=O)cc1
inactive: dose: 0.78 mg/kg/injection, schedule: Q04DX002 (ip), vehicle: saline 89 % of control | dose: 1.56 mg/kg/injection, schedule: Q01DX009 (ip), vehicle: saline 93 % of control | dose: 1.56 mg/kg/injection, schedule: Q04DX002 (ip), vehicle: saline 95 % of control | dose: 3.13 mg/kg/injection, schedule: Q01DX009 (ip), vehicle: saline 93 % of control | dose: 3.13 mg/kg/injection, schedule: Q04DX002 (ip), vehicle: saline 95 % of control | dose: 6.25 mg/kg/injection, schedule: Q01DX009 (ip), vehicle: saline 97 % of control | dose: 6.25 mg/kg/injection, schedule: Q04DX002 (ip), vehicle: saline 100 % of control

Clc1nc2nc3n(c2nc1Cl)CCC3(Br)Br
inactive: dose: 12.5 mg/kg/injection, schedule: Q01DX009 (ip), vehicle: other 112 % of control | dose: 25.0 mg/kg/injection, schedule: Q01DX009 (ip), vehicle: other 114 % of control | dose: 50.0 mg/kg/injection, schedule: Q01DX009 (ip), vehicle: other 112 % of control | dose: 100.0 mg/kg/injection, schedule: Q01DX009 (ip), vehicle: other 110 % of control

OC1COC(CCl)OC1C1OC(CCl)OCC1O (stereo not drawn)
inactive: [1] 96 % of control | [2] 96 % of control | [3] 96 % of control

O=C(O)CCC(C(=O)O)N1C(=O)C2C3CCC(C3)C2C1=O (stereo not drawn)
inactive: [10] 93 % of control | [14] 96 % of control | [15] 93 % of control and 98 % of control | [16] 95 % of control | [22] 98 % of control

CCc1ccccc1NC(=O)C(Cl)Cl
inactive: [1] 100 % of control | [2] 103 % of control | [3] 100 % of control

O=C(O)C1CCC(=O)C2CCCCC12 (stereo not drawn)
inactive: [17] 97 % of control | [19] 94 % of control | [21] 95 % of control

COc1ccc([N+](=O)[O-])cc1N
inactive: dose: 100.0 mg/kg/injection, schedule: Q04DX003 (ip), vehicle: Klucel (hydroxypropylcellulose) (HPC) 101 % of control | dose: 200.0 mg/kg/injection, schedule: Q04DX003 (ip), vehicle: Klucel (hydroxypropylcellulose) (HPC) 104 % of control | dose: 400.0 mg/kg/injection, schedule: Q04DX003 (ip), vehicle: Klucel (hydroxypropylcellulose) (HPC) 90 % of control

NNC(=O)C1CC1
inactive: dose: 12.5 mg/kg/injection, schedule: Q04DX003 (ip), vehicle: saline 101 % of control | dose: 25.0 mg/kg/injection, schedule: Q04DX003 (ip), vehicle: saline 97 % of control | dose: 50.0 mg/kg/injection, schedule: Q04DX003 (ip), vehicle: saline 96 % of control and 103 % of control

c1ccc(-c2nnc(-c3ccc4ccc5cccnc5c4n3)nc2-c2ccccc2)cc1
inactive: [15] 93 % of control | [16] 104 % of control | [22] 104 % of control

CCOC(C#CC1CCCC1)OCC
inactive: [13] 95 % of control | [8] 92 % of control | [9] 100 % of control
